In PubChem BioAssay (NCI):
“And” between values parts separate entries of the source, which are not always exact repeats. Identical values can stand only once.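 Five concentrations, 48 hours, 96-well plates. At the GI50, growth is halved. The concentration for full growth arrest is given as TGI.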

Assays:
Experiment in all cases: DTP human tumour cell line panel, 48 h; in the data active = GI50 below about 0.43 µM; inactive = the rest
DMS 114 small cell lung = test system: DMS 114 small cell lung
HOP-92 NSCLC = test system: HOP-92 NSCLC
MOLT-4 leukemia = test system: MOLT-4 leukemia
OVCAR-4 ovarian = test system: OVCAR-4 ovarian
RPMI-8226 leukemia = test system: RPMI-8226 leukemia
RXF 393 renal = test system: RXF 393 renal
SR leukemia = test system: SR leukemia
TK-10 renal = test system: TK-10 renal
UO-31 renal = test system: UO-31 renal
A549 NSCLC = test system: A549 NSCLC
ACHN renal = test system: ACHN renal
CAKI-1 renal = test system: CAKI-1 renal
CCRF-CEM leukemia = test system: CCRF-CEM leukemia
COLO 205 colon = test system: COLO 205 colon
DLD-1 colon = test system: DLD-1 colon
EKVX NSCLC = test system: EKVX NSCLC
HCC-2998 colon = test system: HCC-2998 colon
HCT-116 colon = test system: HCT-116 colon
HL-60(TB) leukemia = test system: HL-60(TB) leukemia
HOP-62 NSCLC = test system: HOP-62 NSCLC
HT29 colon = test system: HT29 colon
IGROV1 ovarian = test system: IGROV1 ovarian
K-562 leukemia = test system: K-562 leukemia
KM12 colon = test system: KM12 colon
KM20L2 colon = test system: KM20L2 colon
LXFL 529 NSCLC = test system: LXFL 529 NSCLC
M14 melanoma = test system: M14 melanoma
M19-MEL melanoma = test system: M19-MEL melanoma
NCI-H226 lung = test system: NCI-H226 lung
NCI-H23 lung = test system: NCI-H23 lung
NCI-H460 lung = test system: NCI-H460 lung
OVCAR-3 ovarian = test system: OVCAR-3 ovarian
OVCAR-8 ovarian = test system: OVCAR-8 ovarian
SF-268 CNS = test system: SF-268 CNS
SF-295 CNS = test system: SF-295 CNS
SF-539 CNS = test system: SF-539 CNS
SK-MEL-2 melanoma = test system: SK-MEL-2 melanoma
SK-MEL-28 melanoma = test system: SK-MEL-28 melanoma
SK-MEL-5 melanoma = test system: SK-MEL-5 melanoma
SNB-19 CNS = test system: SNB-19 CNS
SNB-75 CNS = test system: SNB-75 CNS
SW-620 colon = test system: SW-620 colon
UACC-257 melanoma = test system: UACC-257 melanoma
UACC-62 melanoma = test system: UACC-62 melanoma
786-0 renal = test system: 786-0 renal
A498 renal = test system: A498 renal
BT-549 breast = test system: BT-549 breast
DU-145 prostate = test system: DU-145 prostate
HCT-15 colon = test system: HCT-15 colon
HS 578T breast = test system: HS 578T breast
LOX IMVI melanoma = test system: LOX IMVI melanoma
MALME-3M melanoma = test system: MALME-3M melanoma
MCF7 breast = test system: MCF7 breast
MDA-MB-231 breast = test system: MDA-MB-231 breast
MDA-MB-435 = test system: MDA-MB-435
MDA-N = test system: MDA-N
NCI-H522 lung = test system: NCI-H522 lung
NCI/ADR-RES ovarian = test system: NCI/ADR-RES ovarian
OVCAR-5 ovarian = test system: OVCAR-5 ovarian
PC-3 prostate = test system: PC-3 prostate
SK-OV-3 ovarian = test system: SK-OV-3 ovarian
SN12C renal = test system: SN12C renal
T-47D breast = test system: T-47D breast
U251 CNS = test system: U251 CNS

CC(=O)OCC1OC(n2c(=S)n(-c3ccc(C)cc3)c(=O)c3ccccc32)C(OC(C)=O)C(OC(C)=O)C1OC(C)=O (centres undefined)
inactive: GI50 (DMS 114 small cell lung) 41.9 µM and 90 µM | GI50 (OVCAR-4 ovarian) 17 µM and 45.1 µM
83.9 µM and > 100 µM: TGI (OVCAR-4 ovarian)
> 100 µM: TGI (DMS 114 small cell lung) | TGI (HOP-92 NSCLC) | TGI (MOLT-4 leukemia) | TGI (RPMI-8226 leukemia) | TGI (RXF 393 renal) | TGI (SR leukemia) | TGI (TK-10 renal) | TGI (UO-31 renal)

COC(=O)C1=C(C)N2CCOC2(C)C(C(=O)OC)C1c1ccc[nH]1 (centres undefined)
82.9 µM: TGI (SNB-75 CNS)
> 100 µM: TGI (A549 NSCLC) | TGI (ACHN renal) | TGI (CAKI-1 renal) | TGI (CCRF-CEM leukemia) | TGI (COLO 205 colon) | TGI (DLD-1 colon) | TGI (DMS 114 small cell lung) | TGI (EKVX NSCLC) | TGI (HCC-2998 colon) | TGI (HCT-116 colon) | TGI (HL-60(TB) leukemia) | TGI (HOP-62 NSCLC) | TGI (HOP-92 NSCLC) | TGI (HT29 colon) | TGI (IGROV1 ovarian) | TGI (K-562 leukemia) | TGI (KM12 colon) | TGI (KM20L2 colon) | TGI (LXFL 529 NSCLC) | TGI (M14 melanoma) | TGI (M19-MEL melanoma) | TGI (MOLT-4 leukemia) | TGI (NCI-H226 lung) | TGI (NCI-H23 lung) | TGI (NCI-H460 lung) | TGI (OVCAR-3 ovarian) | TGI (OVCAR-4 ovarian) | TGI (OVCAR-8 ovarian) | TGI (RPMI-8226 leukemia) | TGI (RXF 393 renal) | TGI (SF-268 CNS) | TGI (SF-295 CNS) | TGI (SF-539 CNS) | TGI (SK-MEL-2 melanoma) | TGI (SK-MEL-28 melanoma) | TGI (SK-MEL-5 melanoma) | TGI (SNB-19 CNS) | TGI (SR leukemia) | TGI (SW-620 colon) | TGI (TK-10 renal) | TGI (UACC-257 melanoma) | TGI (UACC-62 melanoma) | TGI (UO-31 renal)

O=C(O)c1ccccc1C1CCCc2c1[nH]c1ccccc21 (centres undefined)
71 µM: TGI (T-47D breast)
76.2 µM: TGI (CCRF-CEM leukemia)
85.9 µM: TGI (A498 renal)
> 100 µM: TGI (786-0 renal) | TGI (A549 NSCLC) | TGI (ACHN renal) | TGI (BT-549 breast) | TGI (CAKI-1 renal) | TGI (COLO 205 colon) | TGI (DU-145 prostate) | TGI (EKVX NSCLC) | TGI (HCC-2998 colon) | TGI (HCT-116 colon) | TGI (HCT-15 colon) | TGI (HL-60(TB) leukemia) | TGI (HOP-62 NSCLC) | TGI (HOP-92 NSCLC) | TGI (HS 578T breast) | TGI (HT29 colon) | TGI (IGROV1 ovarian) | TGI (K-562 leukemia) | TGI (KM12 colon) | TGI (LOX IMVI melanoma) | TGI (M14 melanoma) | TGI (MALME-3M melanoma) | TGI (MCF7 breast) | TGI (MDA-MB-231 breast) | TGI (MDA-MB-435) | TGI (MDA-N) | TGI (MOLT-4 leukemia) | TGI (NCI-H226 lung) | TGI (NCI-H23 lung) | TGI (NCI-H460 lung) | TGI (NCI-H522 lung) | TGI (NCI/ADR-RES ovarian) | TGI (OVCAR-3 ovarian) | TGI (OVCAR-4 ovarian) | TGI (OVCAR-5 ovarian) | TGI (OVCAR-8 ovarian) | TGI (PC-3 prostate) | TGI (RPMI-8226 leukemia) | TGI (RXF 393 renal) | TGI (SF-268 CNS) | TGI (SF-295 CNS) | TGI (SF-539 CNS) | TGI (SK-MEL-2 melanoma) | TGI (SK-MEL-28 melanoma) | TGI (SK-MEL-5 melanoma) | TGI (SK-OV-3 ovarian) | TGI (SN12C renal) | TGI (SNB-19 CNS) | TGI (SR leukemia) | TGI (SW-620 colon) | TGI (TK-10 renal) | TGI (U251 CNS) | TGI (UACC-257 melanoma) | TGI (UACC-62 melanoma) | TGI (UO-31 renal)
59.3 µM: TGI (SNB-75 CNS)
